Each structure is given as a SMILES string.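 Each compound was tested at five concentrations against cells in 96-well plates for 48 hours. At the GI50, growth is halved.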 Calls of active or inactive are those of the source. Cut-off read from the data, not from the text of the source: active = GI50 up to about 1.1 µM and inactive = higher. Some results are limits rather than exact numbers.

Some test systems named below: HCT-15; HL-60; HOP-92; MCF7; MDA-N; NCI-H226; NCI-H460; NCI-H522; NCI/ADR-RES; OVCAR-4; OVCAR-5; RXF 393; SF-539; SNB-19; SNB-75; SW-620; TK-10; UACC-257; Hs-578T; BT-549.
What all share (experiment): NCI tumour cell line growth inhibition, 48 h

Consider `CN(C)c1ccc(/C=N/Nc2nc3ccccc3c(=O)n2-c2ccccc2)cc1`, for which the GI50 with HCT-15 was greater than 100 µM; in the experiment on HL-60 it was > 100 µM (inactive); in the experiment on HOP-92 it was 31 µM (inactive); with MCF7 it was > 100 µM (inactive); with MDA-N it was 74.3 µM (inactive); in the experiment with NCI-H226, > 100 µM (inactive). Also, the GI50 in the experiment on NCI-H460 is > 100 µM (inactive); in the experiment on NCI-H522 it was 44.5 µM (inactive); in the experiment with NCI/ADR-RES it was 63.1 µM (inactive); with OVCAR-4, 15.9 µM (inactive); in the experiment on OVCAR-5, > 100 µM (inactive); in the experiment with RXF 393, 50.8 µM (inactive). Also, the GI50 with SF-539 was 30.4 µM (inactive); with SNB-19, 34.9 µM (inactive); with SNB-75 it was 5.75 µM (inactive); in the experiment on SW-620 it was > 100 µM (inactive); in the experiment with TK-10, > 100 µM (inactive); in the experiment with UACC-257, > 100 µM (inactive).
For `O=NN(CCCl)C(=O)N[C@H]1CC[C@H](CC(=O)O)CC1`, the GI50 with HCT-15 is greater than 100 µM; in the experiment on HL-60, 29.7 µM (inactive); in the experiment with HOP-92, > 100 µM (inactive); in the experiment with MCF7, > 100 µM (inactive); in the experiment with NCI-H226 it was > 100 µM (inactive); with NCI-H460 it was 45.2 µM (inactive). Moreover, the GI50 in the experiment on NCI-H522 was 28 µM (inactive); in the experiment on NCI/ADR-RES it was > 100 µM (inactive); in the experiment on OVCAR-4, > 100 µM (inactive); with OVCAR-5, > 100 µM (inactive); in the experiment with RXF 393, > 100 µM (inactive); with SF-539, 26.1 µM (inactive). The GI50 was 59.3 µM (inactive) with SNB-19; 50.4 µM (inactive) in the experiment with SNB-75; > 69.2 µM (inactive) in the experiment on SW-620; > 100 µM (inactive) in the experiment with TK-10; > 100 µM (inactive) in the experiment on UACC-257.
With `CC(=NNC(=S)Nc1ccc(C)cc1)c1cccc(C(C)=NNC(=S)Nc2ccc(C)cc2)n1`, the GI50 was 6.82 µM in the experiment with HCT-15; 3.97 µM (inactive) in the experiment on HL-60; 10 µM (inactive) with HOP-92; 41.1 µM (inactive) in the experiment on Hs-578T; > 100 µM (inactive) with MCF7; 19.9 µM (inactive) with MDA-N. For the same molecule, the GI50 in the experiment on NCI-H226 was 13.7 µM (inactive); in the experiment with NCI-H460, 6.47 µM (inactive); in the experiment on NCI-H522, 22.3 µM (inactive); with NCI/ADR-RES it was 5 µM (inactive); with OVCAR-4, 10.9 µM (inactive); in the experiment on OVCAR-5, 60.5 µM (inactive). The GI50 in the experiment on RXF 393 was 14.4 µM (inactive); in the experiment with SF-539, 7.01 µM (inactive); with SNB-19, 36.3 µM (inactive); in the experiment on SNB-75 it was 4.69 µM (inactive); in the experiment with SW-620 it was 10.9 µM (inactive); in the experiment on TK-10, 60.1 µM (inactive). Moreover, in the experiment on UACC-257, the GI50 is 13.9 µM (inactive).
As for `O=C(/N=N/c1ccccc1Cl)NNc1ccccc1Cl`, the GI50 was > 10 µM (inactive) with BT-549; 60.7 µM in the experiment with HCT-15; 19.2 µM (inactive) in the experiment with HL-60; 36.5 µM (inactive) with MDA-N; > 100 µM (inactive) in the experiment with NCI-H226; 65 µM (inactive) in the experiment with NCI-H460. For the same molecule, the GI50 was 23.6 µM (inactive) with NCI-H522; 16.2 µM (inactive) in the experiment with OVCAR-4; 43.2 µM (inactive) with OVCAR-5; 63.2 µM (inactive) with SNB-19; > 100 µM (inactive) with SNB-75; 40.7 µM (inactive) in the experiment on SW-620. The GI50 is 50.9 µM (inactive) in the experiment with TK-10 and > 100 µM (inactive) in the experiment on UACC-257.
On to `COc1cc2c(cc1OCCCCOc1cc3nc(C)nc(Cl)c3cc1OC)N=C[C@@H]1CCCN1C2=O`, for which the GI50 with BT-549 is 2.17 µM (inactive); in the experiment on HCT-15 it was 1.43 µM; in the experiment on HL-60 it was 2.48 µM (inactive); in the experiment on HOP-92 it was 2.02 µM (inactive); in the experiment on Hs-578T, 1.99 µM (inactive); in the experiment with MCF7, 3.03 µM (inactive). Besides, the GI50 is 1.85 µM (inactive) with NCI-H226; 3.4 µM (inactive) with NCI-H460; 0.637 µM (active) in the experiment with NCI-H522; 2.27 µM (inactive) in the experiment with NCI/ADR-RES; 2.84 µM (inactive) with OVCAR-4; 2 µM (inactive) in the experiment on OVCAR-5. Further, the GI50 is 2.12 µM (inactive) with RXF 393; 2.04 µM (inactive) with SF-539; 17.4 µM (inactive) in the experiment with SNB-19; 1.46 µM (inactive) in the experiment with SNB-75; 2.54 µM (inactive) in the experiment with SW-620; 2.34 µM (inactive) with TK-10. Also, the GI50 with UACC-257 was 2.29 µM (inactive).
For `CC1=C(C#N)C(C#N)(C#N)C(NN(C)C)C1` (configuration not stated), the GI50 in the experiment with HCT-15 was 7.38 µM; in the experiment on HL-60 it was 3.59 µM (inactive); in the experiment on HOP-92, 15.1 µM (inactive); in the experiment with Hs-578T it was > 100 µM (inactive); in the experiment on MCF7, 10.6 µM (inactive); in the experiment with MDA-N, 10.1 µM (inactive). Also, the GI50 in the experiment on NCI-H522 was 4.07 µM (inactive); with NCI/ADR-RES, 23.8 µM (inactive); with OVCAR-4, 30.7 µM (inactive); in the experiment with OVCAR-5 it was 23.3 µM (inactive); in the experiment on RXF 393 it was 13 µM (inactive); in the experiment with SF-539, 36.1 µM (inactive). Also, the GI50 was > 10 µM (inactive) in the experiment with SNB-19; 21.4 µM (inactive) in the experiment with SNB-75; 17.3 µM (inactive) with SW-620; 17 µM (inactive) with TK-10; 10.6 µM (inactive) in the experiment on UACC-257.
Turning to `c1ccc(CN2CCC(Nc3ccccc3)(c3nnnn3Cc3ccccc3)CC2)cc1`, the GI50 was 27.5 µM with HCT-15; 11.5 µM (inactive) in the experiment on HL-60; 5.37 µM (inactive) with HOP-92; 24.2 µM (inactive) in the experiment on Hs-578T; 22.4 µM (inactive) in the experiment with MCF7; 42.7 µM (inactive) in the experiment on NCI-H226. For the same molecule, the GI50 with NCI-H460 is 15.7 µM (inactive); with NCI/ADR-RES, 24.5 µM (inactive); with OVCAR-4 it was 29.6 µM (inactive); in the experiment with OVCAR-5, 22.5 µM (inactive); in the experiment with RXF 393 it was 27.4 µM (inactive); in the experiment on SF-539, 20.5 µM (inactive). Moreover, the GI50 is 27.3 µM (inactive) in the experiment with SNB-19; 22.7 µM (inactive) with SNB-75; 22.2 µM (inactive) in the experiment with SW-620; 29.2 µM (inactive) with TK-10; 14.1 µM (inactive) in the experiment with UACC-257.
Regarding `O=C1/C(=C\c2c(-c3ccccc3)[nH]n(-c3ccccc3)c2=O)C(c2ccccc2)=NN1c1ccccc1`, the GI50 in the experiment on HCT-15 was greater than 100 µM; in the experiment on HL-60 it was > 100 µM (inactive); in the experiment on HOP-92, 81.3 µM (inactive); in the experiment with Hs-578T it was > 100 µM (inactive); with MCF7, > 100 µM (inactive); with MDA-N, > 100 µM (inactive). Also, the GI50 in the experiment with NCI-H226, in the experiment on NCI-H460, in the experiment on NCI/ADR-RES, in the experiment with OVCAR-4, with OVCAR-5 and in the experiment on RXF 393 was > 100 µM (inactive) in each case. Also, the GI50 in the experiment with SF-539, with SNB-19, in the experiment with SNB-75, with SW-620, in the experiment on TK-10 and in the experiment on UACC-257 was > 100 µM (inactive) each time.
As for `O=C(CC(=O)N1N=C(N(c2ccccc2)c2ccccc2)CC1c1ccccc1)Nc1ccc(Cl)cc1` (configuration not stated), the GI50 is > 100 µM (inactive) with BT-549; greater than 100 µM in the experiment on HCT-15; > 100 µM (inactive) in the experiment on HL-60; > 100 µM (inactive) in the experiment with HOP-92; > 100 µM (inactive) in the experiment with Hs-578T; > 100 µM (inactive) with MCF7. The GI50 with NCI-H226, with NCI-H460, in the experiment on NCI-H522, in the experiment with NCI/ADR-RES, in the experiment on OVCAR-4 and in the experiment on OVCAR-5 was > 100 µM (inactive) throughout. The GI50 was > 100 µM (inactive) with RXF 393; > 100 µM (inactive) in the experiment on SF-539; > 100 µM (inactive) in the experiment on SNB-19; 94 µM (inactive) in the experiment with SNB-75; > 100 µM (inactive) in the experiment on SW-620; > 100 µM (inactive) with TK-10. Also, in the experiment with UACC-257, the GI50 was > 100 µM (inactive).
Consider `O=[N+]([O-])c1ccc(CSc2nncc3[nH]cnc23)cc1`, for which the GI50 is 85.3 µM (inactive) in the experiment with BT-549; greater than 100 µM in the experiment on HCT-15; > 100 µM (inactive) in the experiment with HL-60; 10.6 µM (inactive) in the experiment on HOP-92; > 100 µM (inactive) in the experiment with MCF7; > 100 µM (inactive) with MDA-N. In addition, the GI50 in the experiment on NCI-H226, in the experiment on NCI-H522, in the experiment on NCI/ADR-RES, with OVCAR-4, with OVCAR-5 and in the experiment with SF-539 was > 100 µM (inactive) each time. The GI50 was 80.2 µM (inactive) with SNB-75, > 100 µM (inactive) with SW-620, > 100 µM (inactive) in the experiment on TK-10 and > 100 µM (inactive) in the experiment with UACC-257.
With `C=C1C(=O)[C@@]23CC[C@@H]4[C@@]5(C)CCC[C@@]4(OC5=O)C2(C)CC[C@]1(OC)C3` (some centres not stated), the GI50 in the experiment on HCT-15 is 0.581 µM; with Hs-578T it was 1.96 µM (inactive); in the experiment on MCF7 it was 0.255 µM (active); in the experiment on MDA-N, 0.52 µM (active); in the experiment with NCI-H460, 1.93 µM (inactive); with NCI-H522, 0.406 µM (active). In addition, the GI50 was 1.45 µM (inactive) in the experiment with NCI/ADR-RES; 2.06 µM (inactive) in the experiment with OVCAR-5; 1.57 µM (inactive) in the experiment on SF-539; 1.83 µM (inactive) in the experiment with SNB-19; 1.24 µM (inactive) in the experiment on SNB-75; 0.718 µM (active) in the experiment with SW-620. Besides, the GI50 is 1.38 µM (inactive) in the experiment on TK-10 and 1.51 µM (inactive) in the experiment with UACC-257.
For `O=S(=O)(c1cc(Cl)ccc1Cl)n1ccnc1`, the GI50 in the experiment with BT-549 is 35.4 µM (inactive); in the experiment with HCT-15, 24.7 µM; with HL-60, 28.4 µM (inactive); in the experiment on HOP-92, 39.9 µM (inactive); with Hs-578T it was 51.4 µM (inactive); in the experiment with MCF7, 35 µM (inactive). In addition, the GI50 in the experiment on NCI-H226 is 14.5 µM (inactive); in the experiment on NCI-H460, 25.9 µM (inactive); in the experiment with NCI-H522, 27.4 µM (inactive); in the experiment with NCI/ADR-RES, 20.2 µM (inactive); in the experiment on OVCAR-4, 43 µM (inactive); in the experiment on OVCAR-5, 35.5 µM (inactive). For the same molecule, the GI50 was 28 µM (inactive) in the experiment on RXF 393; 17.4 µM (inactive) with SF-539; 70.8 µM (inactive) with SNB-19; 41.8 µM (inactive) in the experiment with SNB-75; 77.4 µM (inactive) with SW-620; 24.1 µM (inactive) in the experiment with TK-10. In the experiment with UACC-257, the GI50 is 26.7 µM (inactive).

Source of the values: ChEMBL document CHEMBL1201862, “PubChem BioAssay data set” (2004).
